What was measured:
osteoarthritis pain = osteoarthritis pain model; type: in vivo
From the text: (§1) Methods of treating pain, including visceral pain with APD371 are described in US patent application publication no. 2020-0078358, which is herein incorporated by reference in its entirety.

rat CB2 receptors = molecular target: T1, rat CB2 receptors (Rattus norvegicus, UniProt Q9QZN9); assay: CB2 receptor internalization efficacy relative to CP55,940 (rat); type: cell-based
T1 sequence (Q9QZN9 1-360): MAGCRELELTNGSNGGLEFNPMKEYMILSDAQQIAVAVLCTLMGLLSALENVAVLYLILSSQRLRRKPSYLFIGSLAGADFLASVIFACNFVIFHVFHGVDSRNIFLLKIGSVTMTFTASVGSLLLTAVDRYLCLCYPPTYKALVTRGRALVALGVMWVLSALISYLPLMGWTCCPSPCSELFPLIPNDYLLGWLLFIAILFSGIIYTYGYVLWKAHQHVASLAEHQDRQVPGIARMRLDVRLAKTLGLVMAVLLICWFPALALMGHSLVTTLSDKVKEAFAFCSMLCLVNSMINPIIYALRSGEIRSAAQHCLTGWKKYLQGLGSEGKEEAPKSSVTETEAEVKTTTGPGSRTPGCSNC
From the text: as §1

human CB2 receptor [1] = molecular target: T2, human CB2 receptor (Homo sapiens, UniProt P34972); assay: CB2 receptor internalization efficacy relative to CP55,940 (human); type: cell-based
From the text: as §1

[2] = tested on: painful peripheral diabetic neuropathy; assay: painful peripheral diabetic neuropathy model; conditions: in vivo
From the text: as §1

[3] = tested on: paclitaxel-induced neuropathic pain; assay: paclitaxel-induced neuropathic pain model; conditions: in vivo
From the text: as §1

human CB2 receptor [4] = molecular target: T2, human CB2 receptor; assay: selectivity for human CB2 receptor versus human CB1 receptor; conditions: human CB2 vs human CB1
From the text: as §1

[5] = tested on: subjects with irritable bowel syndrome experiencing abdominal pain; conditions: 50 mg tid, week 12, subgroup with baseline AAPS >= 6.5 (moderate to severe pain)

T2 sequence (P34972 whole entry): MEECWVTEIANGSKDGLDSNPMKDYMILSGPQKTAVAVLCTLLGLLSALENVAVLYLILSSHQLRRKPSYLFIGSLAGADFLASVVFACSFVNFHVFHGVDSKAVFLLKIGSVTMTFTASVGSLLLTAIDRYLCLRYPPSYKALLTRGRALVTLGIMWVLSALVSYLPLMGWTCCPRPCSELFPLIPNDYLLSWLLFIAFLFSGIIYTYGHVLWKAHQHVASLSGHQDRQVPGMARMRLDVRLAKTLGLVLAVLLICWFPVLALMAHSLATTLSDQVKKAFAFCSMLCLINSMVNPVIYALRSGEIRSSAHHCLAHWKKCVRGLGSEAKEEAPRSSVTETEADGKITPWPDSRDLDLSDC

Which “efficacy in model of osteoarthritis pain” value (osteoarthritis pain; in vivo) does the source give for `CC(C)(C)[C@@H](CO)NC(=O)c1nn(-c2c[n+]([O-])ccn2)c2c1C[C@@H]1C[C@H]21` [Compound A, (1aS,5aS)-2-(4-Oxy-pyrazin-2-yl)-1a,2,5,5a-tetrahydro-1H-2,3-diaza-cyclopropa[a]pentalene-4-carboxylic acid ((S)-1-Hydroxymethyl-2,2-dimethyl-propyl)-amide] here?
Its value is “sustained efficacy”.

And the “duration of in vivo efficacy following dosing” value (osteoarthritis pain; osteoarthritis pain model, despite rapidly declining plasma concentrations)?
The value was “maintained in vivo efficacy for four hours following dosing”.

What about the “receptor internalization efficacy relative to CP55,940” value (rat CB2 receptors) of the same compound?
The value was 105%.

And the “receptor internalization efficacy relative to CP55,940” value (human CB2 receptor [1])?
Its value is 96%.

And the “efficacy in model of painful peripheral diabetic neuropathy” value [2]?
Its value is “sustained efficacy”.

What about the “efficacy in model of paclitaxel-induced neuropathic pain” value [3] of the same compound?
The value was “sustained efficacy”.

And the “selectivity for the human CB2 receptor versus the human CB1 receptor” value (human CB2 receptor [4])?
The value was > 1,000 fold.

What about the “reduction in AAPS from baseline” value [5] of the same compound?
The value was 3.93 points.

What about the “reduction in AAPS compared to placebo” value ([5]; p=0.01) of the same compound?
Its value is 1.64 points.
